Test results from US8551405B2, “Electrophoretic interactive spectral methods and devices for the detection and/or characterization of biological particles” (The University of North Carolina at Chapel Hill, priority 2004, dated 2013).
Several values for one entry are separate records, joined by “and”; a condition that tells them apart may be missing. Equal values may be shown once. Read-outs that look alike come from different tables or passages of the source.

Tests used:
activated platelets = test: EQELS binding of proteins to thrombin-activated platelets; parameters: species or system human
Experimental: (§1) Fresh gel-filtered platelets were used in all experiments. Blood from healthy donors was collected in acid-citrate-dextrose and prostacyclin (5 μg/mL, PGI2, Sigma Chemical Co., St. Louis, Mo.). Platelet-rich-plasma was obtained by centrifugation of the anticoagulated blood at 150 g for 15 minutes. […] Gel-filtered platelets were obtained from the application of washed platelets to a Sepharose CL-2B column (Pharamica Inc., Uppsala, Sweden) equilibrated with calcium-free albumin-free Tyrode's buffer. Platelets for light scattering experiments were suspended in buffer containing 20 mM NaCl, 265 mM sucrose, 2 mM HEPES, pH 7.4 and activated with human α-thrombin (0.2 NIH units/mL). See Li, X., Gabriel, D. A. The physical exchange of factor VIII (FVIII) between von Willebrand factor and activated platelets and the effect of the FVIII B-domain on platelet binding (1997) Biochem. J. 36, 10760-10767. […] EQELS spectra of the gel filtered platelets gave a single homogeneous mobility indicating the lack of microparticles. No change is observed in the platelet mobility spectrum on the addition of rFVIIa over the concentration range where rFVIIa would be expected to bind to tissue factor if it was present, indicating an absence of TF in the preparation.
Electrophoretic quasi-elastic light scattering offers the ability to monitor changes in the surface of blood cells resulting from cell activation and ligand binding. Gabriel, D. A., Reece, N., Witte, J., and Muga, K. Electrophoretic light scattering studies on the interaction of fibrinogen with resting and activated human platelets (1993) Blood Coagul. Fibrinolysis 4, 397-403; Johnson, C., and Gabriel, D. A. (1995) Laser Light Scattering, Dover, N.Y. The electrophoretic mobility of activated platelets changes when exposed to a known ligand and that the mobility change is the result of ligand binding. […] Under these experimental conditions, resting gel-filtered platelets have an electrophoretic mobility of −0.9 (μ-cm)/(volt-sec) and activated platelets have a mobility of −0.65(μ-cm)/(volt-sec). Loading the platelet surface with a ligand, such as a FIX or FVIII, changes the platelet electrophoretic mobility. While the absolute mobility varies slightly from donor to donor, there is minimal variation in a given donor. The dependence of the change in the platelet electrophoretic mobility on the addition of FIX permits calculation of the binding constant for FIX to the activated platelet. It is not the magnitude of the change in the platelet electrophoretic mobility, μ, that determines the binding constant, but how the change in μ depends on the concentration of the ligand FIX. The effect of ligand binding on the platelet mobility varies with the ligand, and is dependent on the extent of ligand binding, the extent of surface modification caused by ligand binding, and on the net charge of the ligand itself.
EQELS measurements were made on a multi-angle quasi-elastic light scattering spectrometer (DELSA 440, Coulter Electronics, Inc., Hialeah, Fla.). See Li, X., Gabriel, D. A. Biochem. J. 36, 10760-10767 (1997); Johnson, C., and Gabriel, D. A. (1995) Laser Light Scattering, Dover, N.Y.
Activated platelets and activated FVIII were prepared by activation with 0.2 NIH U/mL human α-thrombin for 5 minutes. After activation, residual thrombin was inactivated by addition of 2.5 μM phenylalanyl prolinyl arginine chloromethyl ketone (PPACK, Calbiochem, La Jolla, Calif.). FIX, FIXa, FVIIIa, and rFVIIa were incubated with platelets for 10 minutes before EQELS measurements.
The binding coefficient (Kd) of the proteins to platelets was determined by fitting the data from the binding experiment to:
[formula] where, μ is the electrophoretic mobility, μ0 is the mobility in the absence of added protein, Δμ is the calculated maximal change in mobility at the saturating concentration of protein. This model assumes one class of binding sites for the specific protein ligand on the platelets. […]

resting platelets = test: EQELS binding to resting platelets; parameters: species or system human; details: data not shown
Experimental: as §1, with “preparation. […]” for “preparation.”

[1] = system: activated platelet surface; details: literature, read-out: Kd, binding to activated platelet surface, cited from earlier work
FIX = target: T1, FIX (Homo sapiens, UniProt P00740); test: Functional (chromogenic) assay for activation of FIX on activated platelets; assay type: biochemical
T1 construct: made in house
Experimental: FIG. 12 is a graph illustrating the amount of FIX activated as a function of time and at different concentrations of rFVIIa (between 0 nM and 49 nM) for a chromogenic assay to show activation of FIX by rFVIIa in the absence of TF.
All assays were run in Tyrodes buffer with 2 mM CaCl2. Platelets were activated with 0.2 NIH units/ml of human α-thrombin for 10 minutes at 37° C. FVIII at 5 units/ml were included with the platelets and thrombin. Thrombin was neutralized with hirudin from a medium titrated against an α-thrombin standard. FVIIa at varying concentrations was added to the platelets for 10 minutes. Plasma concentrations of FIX at 80 nM were added and incubated for varied times. FIXa was assayed in a two stage assay. Platelets with activated FIX were incubated with plasma concentrations of FX for 5 minutes, then the amount of FXa was measured by adding plasma concentrations of prothrombin along with a […] (0.5 mM Perfachrome Th). […] Thrombin generation was measured as the change in the absorbance as the p-nitroanilide substrate was cleaved as a function of time. As expected, substrate cleavage fit a second order pattern and the rate of thrombin generation was determined from the first derivative of the absorbance versus time data.

[2] = target: T2, platelet-bound zymogen FIX (Homo sapiens, UniProt P00740); test: EQELS time and concentration dependence of zymogen FIX activation by rFVIIa on activated platelets; assay type: cell-based; details: FIX 10 nM
T2 construct: made in house
Experimental: FIG. 11A is a graph of the time and concentration dependence of rFVIIa on the activation of zymogen FIX. Platelets were activated with thrombin followed by inhibition of thrombin with PPACK. The activated platelets were then loaded with rFVIIa (0.075 nM, 1 nM, or 10 nM) and monitored as a function of time. The mobility at the initial time (zero) is the mobility for platelets loaded with zymogen FIX. […] Changes in the platelet mobility result from FIX activation.
Zymogen FIX at varying concentrations was added to the thrombin activated platelets that in some experiments included FVIIIa followed by a 10 minute incubation period. After this incubation period, rFVIIa was added to activated platelets coated with zymogen FIX. The EQELS spectrum was then obtained.
A decrease in the […] of FIX was used to detect activation of zymogen FIX by rFVIIa.

[3] = rFVIIa concentration after therapeutic infusion; assay type: in vivo; details: therapeutic infusion for a bleeding diathesis, estimated
[4] = 4 mM Ca++, 3 nM FVIIIa, read-out: Binding Coefficient (Kd), interaction with activated platelets
[5] = 4 mM Ca++, No FVIIIa, read-out: Binding Coefficient (Kd), interaction with activated platelets

T2 sequence (P00740 29-461 limits assumed): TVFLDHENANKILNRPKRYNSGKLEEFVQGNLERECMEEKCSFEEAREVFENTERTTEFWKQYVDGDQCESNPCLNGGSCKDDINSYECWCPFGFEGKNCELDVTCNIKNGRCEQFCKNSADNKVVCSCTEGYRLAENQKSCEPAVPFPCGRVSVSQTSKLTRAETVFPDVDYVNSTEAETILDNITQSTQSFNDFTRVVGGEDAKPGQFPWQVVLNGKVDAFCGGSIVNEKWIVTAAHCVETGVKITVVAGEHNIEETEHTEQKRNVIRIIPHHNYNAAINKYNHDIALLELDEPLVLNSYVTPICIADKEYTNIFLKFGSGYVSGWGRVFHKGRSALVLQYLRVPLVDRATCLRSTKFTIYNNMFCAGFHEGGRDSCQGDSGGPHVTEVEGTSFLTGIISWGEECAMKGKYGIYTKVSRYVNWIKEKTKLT
T1 sequence (P00740 29-461 limits assumed): as above

## Activated coagulation factor IX [FIXa]
Activated platelets; [4]
  Kd: 0.57 nM
Activated platelets; [5]
  Kd: 1.9 nM
Activated platelets; 4 mM calcium, 3 nM rFVIIIa, read-out: binding constant (Kd) to activated platelets
  Kd: 0.569 nM and 0.6 nM
Activated platelets; 4 mM calcium, no rFVIIIa, read-out: binding constant (Kd) to activated platelets
  Kd: 1.9 nM and 2 nM
Activated platelets; absence of calcium
  binding to activated platelets (change in platelet electrophoretic mobility): no binding
Resting platelets
  binding to resting platelets: do not bind
[1]; in the presence of rFVIIIa
  Kd: 0.6 nM
[1]; no rFVIIIa
  Kd: 2.5 nM

## Coagulation factor IX [FIX]
Activated platelets; 10 nM rFVIIa, 4 mM calcium, 3 nM rFVIIIa, read-out: binding coefficient (Kd) for zymogen FIX to activated platelets in presence of rFVIIa
  Kd: 0.84 nM
Activated platelets; 10 nM rFVIIa, 4 mM calcium, no rFVIIIa, 10 min incubation, read-out: binding coefficient (Kd) for zymogen FIX to activated platelets in presence of rFVIIa
  Kd: 1.62 nM and 1.6 nM
Activated platelets; [4]
  Kd: 5.8 nM
Activated platelets; [5]
  Kd: 7.9 nM
Activated platelets; FIX + FVIIa (10 nM), 4 mM Ca++, No FVIIIa, read-out: Binding Coefficient (Kd) for FIX in the presence of FVIIa, activated platelets
  Kd: 1.62 nM
Resting platelets
  binding to resting platelets: do not bind

## Recombinant activated coagulation factor Vila [rFVIIa]
Activated platelets; concentration range where rFVIIa would be expected to bind tissue factor
  change in platelet mobility on addition of rFVIIa: no change
Activated platelets; conditions identical to FIXa binding experiment
  change in platelet surface charge: does not change
Activated platelets; in the presence of FIX
  rFVIIa concentration at which it binds to platelets in the presence of FIX: ≥ 10 nM
Activated platelets; rFVIIa 0 to 40 nM
  change in electrophoretic mobility of platelets on addition of rFVIIa: did not change
Activated platelets; rFVIIa at 10 nM
  binding of rFVIIa to activated platelets: does not bind
Activated platelets; rFVIIa greater than 100 nM
  binding of rFVIIa to activated platelets: can be detected
Activated platelets; rFVIIa less than 100 nM, even in the presence of calcium
  direct binding of rFVIIa to activated platelet surface: no direct binding
Activated platelets; rFVIIa range of 0.75 to 10 nM
  binding of rFVIIa to activated platelets: does not bind
Activated platelets; very high rFVIIa concentrations, absence of calcium (unpublished data), read-out: Kd of rFVIIa binding to platelets
  Kd: 250 nM
Activated platelets; very high rFVIIa concentrations, presence of calcium (unpublished data), read-out: Kd of rFVIIa binding to platelets
  Kd: 123 nM
FIX; dependent on concentration of added rFVIIa, not shown in FIG. 12
  FXa and thrombin production: produced
FIX; rFVIIa 10, 20, 30, 40 nM, absence of TF
  activation of platelet-bound zymogen FIX (chromogenic assay): linear in time and directly proportional to the concentration of added rFVIIa
[2]; 0.075 nM rFVIIa, approximately 30 minutes
  activation of zymogen FIX by rFVIIa (EQELS): minimal activation
[2]; 1 nM rFVIIa
  activation of zymogen FIX by rFVIIa (EQELS): further activation
[2]; 10 nM rFVIIa
  conversion of zymogen FIX to activated FIX by rFVIIa (EQELS): still more rapid rate
[3]
  concentration of rFVIIa after therapeutic infusion: approximately 30 nM
